SMILES strings stand for the structures.

In the first assay the target is T1, CCXCKR2 receptor (Homo sapiens, UniProt P25106).
T1 construct: expressed in transfected cells; host or cells: MDA-MB-435S transfected with pcDNA3.1(+)-hRDC1 and/or MCF-7 (endogenous receptor)
T1 sequence (P25106 whole entry): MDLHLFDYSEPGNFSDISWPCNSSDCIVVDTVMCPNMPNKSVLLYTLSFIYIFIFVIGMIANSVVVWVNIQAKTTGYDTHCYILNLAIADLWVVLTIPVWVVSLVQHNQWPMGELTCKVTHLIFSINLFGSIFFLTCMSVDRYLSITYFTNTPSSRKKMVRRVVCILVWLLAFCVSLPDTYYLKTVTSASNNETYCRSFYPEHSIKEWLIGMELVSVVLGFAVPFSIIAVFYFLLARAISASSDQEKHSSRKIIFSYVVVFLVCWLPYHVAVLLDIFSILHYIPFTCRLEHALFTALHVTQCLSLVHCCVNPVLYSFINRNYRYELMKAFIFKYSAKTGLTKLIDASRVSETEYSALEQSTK
The experiment in a line: Displacement of 125I-labeled SDF-1 from the CCXCKR2 receptor on MCF-7 and/or CCXCKR2-transfected MDA-MB-435S cells (radioligand binding, filtration).
Conditions: not given
Background: In a radioligand displacement assay an active substance lowers the binding of a labelled ligand.
Turning to `Cc1cccc(Cn2cc(C(=O)c3cccc(C)c3)c(=O)c3ccccc32)c1` [Example 20], the IC50 is less than 100 nM. On the same count and under the same terms, for `Cc1ccc(C(=O)c2cn(Cc3cccc(F)n3)c3ccccc3c2=O)cc1C` [Example 70] the value was less than 100 nM.

Still in this assay, the particulars now being: 125I SDF-1, 3 hr at 4° C., MCF-7 and/or MDA-MB-435S cells; read-out: Activity (concentration displacing at least 50% of the SDF-1 from the CCXCKR2 receptor).
On to `COc1ccc(C(=O)c2cn(Cc3cccc(Br)n3)c3ccc(C)nc3c2=O)cc1C` [Example 215], for which the IC50 was less than 100 nM.

`COc1ccc(C(=O)c2cn(Cc3cccc(C)n3)c3ncccc3c2=O)cc1C` [Example 162]: the IC50 is less than 100 nM. On the same count and under the same terms, the value for `Cc1ccc(C(=O)c2cn(Cc3cccc(-c4ccccc4)n3)c3ccccc3c2=O)cc1C` [Example 42] was 100 to 500 nM; that for `Cc1cccc(Cn2cc(C(=O)c3cnc(C)c(C)c3)c(=O)c3cc(F)ccc32)n1` [Example 124] was less than 100 nM. The same measure, in the same setting: for `COc1ccc(C(=O)c2cn(Cc3cccc(Br)n3)c3ccc(C)nc3c2=O)cc1F` [Example 237] the value was 500 to 20000 nM. Consider `Cc1ccc(C(=O)c2cn(Cc3ccccc3F)c3cc4c(cc3c2=O)OC(F)(F)O4)cc1C` [Example 19], for which the IC50 was 500 to 20000 nM. Still for that read-out and setting: for `Cc1cccc(Cn2cc(C(=O)c3ccc(C)c(C)c3)c(=O)c3ccc(C)nc32)n1` [Example 107] the value was less than 100 nM. Same read-out and setting: the value for `Cc1ccc(C(=O)c2cn(Cc3ccccc3F)c3ccncc3c2=O)cc1C` [Example 46] was 500 to 20000 nM; that for `Cc1ccc(C(=O)c2cn(Cc3cccc(Br)n3)c3ccc(F)cc3c2=O)cc1C` [Example 53] was less than 100 nM; that for `Cc1ccc(C(=O)c2cn(Cc3cccc(-c4cncnc4)n3)c3ccccc3c2=O)cc1C` [Example 44] was less than 100 nM. On to `O=C(c1ccc2c(c1)OCCO2)c1cn(Cc2cccc(Br)c2)c2ccccc2c1=O` [Example 231], for which the IC50 is less than 100 nM. On the same count and under the same terms, for `Nc1cccc(Cn2cc(C(=O)c3ccc4c(c3)OCCO4)c(=O)c3ccccc32)n1` [Example 230] the value was 100 to 500 nM; for `Cc1ccc(C(=O)c2cn(Cc3cnn[nH]3)c3ccccc3c2=O)cc1C` [Example 48], 100 to 500 nM; for `Cc1cccc(Cn2cc(C(=O)c3ccc(C(F)(F)F)nc3)c(=O)c3ccccc32)n1` [Example 177], 100 to 500 nM.

For the molecule `Cc1cccc(Cn2cc(C(=O)c3cnccn3)c(=O)c3ccccc32)c1` [Example 62], the IC50 was in the range of 500 to 20000 nM.

As for `Cc1cccc(Cn2cc(C(=O)c3ccncc3)c(=O)c3ccccc32)c1` [Example 17], the IC50 lay within 500 to 20000 nM. Same read-out and setting: for `COc1ccc(C(=O)c2cn(Cc3cccc(Br)n3)c3ccccc3c2=O)cn1` [Example 189] the value was less than 100 nM. Still for that read-out and setting: for `Cc1ccc(C(=O)c2cn(Cc3cccc(Br)c3)c3ccccc3c2=O)cn1` [Example 227] the value was less than 100 nM; for `Cc1cccc(Cn2cc(C(=O)c3ccc4c(c3)OCCO4)c(=O)c3ccccc32)n1` [Example 157], less than 100 nM. For `O=C(c1ccc(Cl)c(Cl)c1)c1cn(Cc2cccc(Br)n2)c2ccccc2c1=O` [Example 100], the IC50 was less than 100 nM. Same read-out and setting: for `Cc1ccc(C(=O)c2cn(Cc3cnccn3)c3ccccc3c2=O)cc1C` [Example 57] the value was less than 100 nM.

Consider `O=C(c1ccc2c(c1)OCCO2)c1cn(Cc2cccc(Br)n2)c2ncccc2c1=O` [Example 175], for which the IC50 is less than 100 nM.

`COc1ccc(C(=O)c2cn(Cc3cccc(Br)n3)c3ncccc3c2=O)cc1` [Example 173]: the IC50 is less than 100 nM. As to `Cc1cc(C(=O)c2cn(Cc3cccc(Br)n3)c3ccccc3c2=O)ccc1Cl` [Example 182], the IC50 is less than 100 nM. Same read-out and setting: the value for `Cc1cccc(Cn2cc(C(=O)c3cccnc3)c(=O)c3ccccc32)c1` [Example 34, 1-(3-Methyl-benzyl)-3-(pyridine-3-carbonyl)-1H-quinolin-4-one] was 500 to 20000 nM. Still for that read-out and setting: the value for `Cc1ccc(C(=O)c2cn(Cc3c(C)cccc3C)c3ccccc3c2=O)cc1C` [Example 58] was 500 to 20000 nM. As for `Cc1cccc(Cn2cc(C(=O)c3cnccn3)c(=O)c3ccccc32)n1` [Example 63], the IC50 was in the range of 500 to 20000 nM.

On to `Cc1ncccc1C(=O)c1cn(Cc2cccc(Br)n2)c2ccccc2c1=O` [Example 219], for which the IC50 lay within 100 to 500 nM.

As to `COc1ccc(C(=O)c2cn(Cc3cccc(Cl)c3)c3ccccc3c2=O)cc1` [Example 243], the IC50 is less than 100 nM.

In the case of `COc1ccc(C(=O)c2cn(Cc3cccc(Br)n3)c3ccccc3c2=O)cc1C` [Example 98], the IC50 was less than 100 nM. As for `Cc1cccc(Cn2cc(C(=O)c3cnc(C)c(C)c3)c(=O)c3ccccc32)n1` [Example 50], the IC50 is less than 100 nM. For the molecule `O=C(c1ccc2c(c1)OCCO2)c1cn(Cc2cccc(C(F)(F)F)n2)c2ccccc2c1=O` [Example 229], the IC50 lay in the range of 100 to 500 nM. Regarding `Cc1cccc(C(=O)c2cn(Cc3cccc(Br)n3)c3ccccc3c2=O)c1C` [Example 103], the IC50 is less than 100 nM. For `CCc1ccc(C(=O)c2cn(Cc3cccc(Cl)c3)c3ccccc3c2=O)cn1` [Example 244], the IC50 lay in the range of 100 to 500 nM.

Regarding `Cc1ccc(C(=O)c2c(C)n(Cc3cccc(Br)n3)c3ccccc3c2=O)cc1C` [Example 72], the IC50 lay within 500 to 20000 nM.

As for `O=C(c1ccc2c(n1)CCCC2)c1cn(Cc2cccc(Br)n2)c2ccccc2c1=O` [Example 89], the IC50 is less than 100 nM. `C[S+]([O-])c1ccc(C(=O)c2cn(Cc3cccc(Br)n3)c3ccccc3c2=O)cc1` (stereo not drawn) [Example 190]: the IC50 was 100 to 500 nM. On to `Cc1ccc(C(=O)c2cn(Cc3cccc(C(N)=O)n3)c3ccccc3c2=O)cc1C` [Example 86], for which the IC50 lay within 500 to 20000 nM. Same read-out and setting: the value for `Cc1cccc(Cn2cc(C(=O)c3ccc(C)c(C)c3)c(=O)c3ncccc32)n1` [Example 134] was less than 100 nM. Still for that read-out and setting: for `COc1ccc(C(=O)c2cn(Cc3cccc(C#N)n3)c3ccccc3c2=O)cc1F` [Example 211] the value was less than 100 nM; for `Cc1cc(C(=O)c2cn(Cc3cccc(C)n3)c3ccccc3c2=O)ccn1` [Example 25], 500 to 20000 nM. Still for that read-out and setting: the value for `COc1cccc(C(=O)c2cn(Cc3cccc(Br)n3)c3ccccc3c2=O)c1` [Example 141] was less than 100 nM; that for `O=C(c1ccccc1-c1cnco1)c1cn(Cc2cccc(Br)n2)c2ccccc2c1=O` [Example 167] was 500 to 20000 nM; that for `Cc1ccc(C(=O)c2cn(Cc3cccc(Br)n3)c3ccccc3c2=O)c(C)c1` [Example 101] was less than 100 nM. As to `Cc1ccc(C(=O)c2cn(Cc3cccc(Br)n3)c3ccccc3c2=O)nc1C` [Example 64], the IC50 was less than 100 nM.

For `O=C(c1ccc2c(c1)OCCO2)c1cn(Cc2cccc(Cl)c2)c2ccccc2c1=O` [Example 233], the IC50 was less than 100 nM.

Turning to `Cc1ccc(C(=O)c2cn(Cc3cccc(Br)n3)c3cccnc3c2=O)cc1C` [Example 105], the IC50 was less than 100 nM. Same read-out and setting: for `Cc1ccc(C(=O)c2cn(Cc3ccccc3F)c3ccccc3c2=O)cc1C` [Example 4] the value was less than 100 nM; for `O=C(c1ccc(O)nc1)c1cn(Cc2cccc(Br)n2)c2ccccc2c1=O` [Example 210], 500 to 20000 nM. With `COc1ccc(C(=O)c2cn(Cc3cccc(Br)c3)c3ccc(C)nc3c2=O)cc1F` [Example 238], the IC50 lay in the range of 500 to 20000 nM. As for `Cc1cccc(Cn2cc(C(=O)c3ccc(C)c(C)c3)c(=O)c3cc4c(cc32)OCCO4)c1` [Example 5], the IC50 lay within 500 to 20000 nM. The same measure, in the same setting: the value for `COc1cc(C(=O)c2cn(Cc3cccc(C)n3)c3ncccc3c2=O)ccc1Cl` [Example 166] was less than 100 nM; that for `Cc1ccc(C(=O)c2cn(Cc3cccc(Br)n3)c3ccccc3c2=O)cn1` [Example 220] was less than 100 nM; that for `Cc1cccc(Cn2cc(C(=O)c3ccc(N(C)C)nc3)c(=O)c3ccccc32)n1` [Example 214] was 100 to 500 nM. Same read-out and setting: the value for `Cc1ccc(C(=O)c2cn(Cc3cccc(C#N)n3)c3ccccc3c2=O)cc1C` [Example 81] was less than 100 nM. For `Cc1cc(C(=O)c2cn(Cc3ccccc3F)c3ccccc3c2=O)cnc1C` [Example 40], the IC50 is less than 100 nM. In the case of `CN(C)c1ccc(C(=O)c2cn(Cc3cccc(Br)n3)c3ccccc3c2=O)cc1` [Example 120], the IC50 was less than 100 nM.

On to `O=C(c1ccncc1)c1cn(Cc2ccccn2)c2ccccc2c1=O` [Example 16], for which the IC50 was in the range of 500 to 20000 nM. The same measure, in the same setting: the value for `CNCc1ccc(C(=O)c2cn(Cc3cccc(Br)n3)c3ccccc3c2=O)cc1` [Example 153] was 100 to 500 nM; that for `COc1ccc(C(=O)c2cn(Cc3cccc(Br)n3)c3ncccc3c2=O)cc1F` [Example 174] was less than 100 nM. `COc1ccc(C(=O)c2cn(Cc3cccc(N)n3)c3ccccc3c2=O)cc1C` [Example 209]: the IC50 is 100 to 500 nM. With `Cc1cccc(C(=O)c2cn(Cc3ccccn3)c3ccccc3c2=O)c1` [Example 22], the IC50 is less than 100 nM.

Take `N#Cc1cccc(Cn2cc(C(=O)c3ccc4c(c3)OCCO4)c(=O)c3ccccc32)n1` [Example 228]: the IC50 was less than 100 nM. On the same count and under the same terms, the value for `Cc1cccc(Cn2cc(C(=O)c3ccnc(C)c3)c(=O)c3ccccc32)c1` [Example 26] was 500 to 20000 nM.

For the molecule `Cc1ccc(C(=O)c2cn(Cc3cccc(-c4ncco4)n3)c3ccccc3c2=O)cc1C` [Example 41], the IC50 lay in the range of 100 to 500 nM. Still for that read-out and setting: the value for `CC(C)(C)c1ccc(C(=O)c2cn(Cc3cccc(Br)n3)c3ccccc3c2=O)cc1` [Example 114] was less than 100 nM; that for `Cc1ccc(C(=O)c2cn(Cc3ccccc3F)c3ccc(C(F)(F)F)cc3c2=O)cc1C` [Example 14] was 500 to 20000 nM. Still for that read-out and setting: for `Cc1ccc(C(=O)c2cn(Cc3ncon3)c3ccccc3c2=O)cc1C` [Example 29] the value was less than 100 nM; for `Cc1cccnc1C(=O)c1cn(Cc2cccc(Br)n2)c2ccccc2c1=O` [Example 149], 100 to 500 nM; for `COc1ccc(C(=O)c2cn(Cc3cccc(Br)n3)c3cccnc3c2=O)cc1C` [Example 201], 500 to 20000 nM. The same measure, in the same setting: for `Cc1ccc(C(=O)c2cn(Cc3cscn3)c3ccccc3c2=O)cc1C` [Example 31] the value was less than 100 nM.

As to `Cc1ccc(C(=O)c2cn(Cc3cccc(C)c3F)c3ccccc3c2=O)cc1C` [Example 45], the IC50 was less than 100 nM.

In the case of `Nc1ccc(C(=O)c2cn(Cc3cccc(Br)n3)c3ccccc3c2=O)cn1` [Example 223], the IC50 lay in the range of 500 to 20000 nM.
